Test results published in patent publication US11213029B2 (priority 2017, dated 2022).
“Also recorded” adds a separate entry of the source. Read-outs that look alike come from different tables or passages of the source.

Tests used:
Format in all cases: cell-based
[1] = system: Xanthomonas oryzae pv. oryzae (Xoo); conditions: 8 mm paper disc, 30° C., 24 hours; for degree of inhibition against the growth of Xoo: 10 mM or 20 mM, dark condition, FIGS. 2 and 3; for degree of inhibition against the growth of Xoo (inhibition radius): 10 mM, FIG. 1
[2] = system: Xanthomonas oryzae pv. oryzae (Xoo); conditions: biplate, paper disc on opposite side, 10 mM, 30° C., dark condition, 24 hours; FIG. 4
Magnaporthe oryzae = conditions: 500 mM (40 μl) on disc, 1.5 cm apart, 28° C., 96 hours; FIG. 7
Xanthomonas oryzae = conditions: by volatility, same manner as Example 3 (10 mM); FIG. 5

## C=C(C)C1CCC2(C)OC2C1 (single isomer, unassigned; (-)) [(−)-limonene oxide]
[1]
  degree of inhibition against the growth of Xoo: effect of directly inhibiting the growth
[2]
  degree of inhibition against the growth of Xoo by volatility: did not show a strong inhibitory effect against the growth but showed a larger area for the inhibitory effect compared to those of carveol and carvone
Magnaporthe oryzae
  growth inhibition of Magnaporthe oryzae: effect of inhibiting the growth

## C=C(C)[C@H]1CC=C(C)CC1 [(R)-(+)-limonene, R-(+)-limonene, reference compound]
[2]
  degree of inhibition against the growth of Xoo by volatility: no significant effect

## C=C(C)[C@@H]1CC=C(C)CC1 [(S)-(−)-limonene, S-(−)-limonene, reference compound]
[1]
  degree of inhibition against the growth of Xoo (inhibition radius): inhibitory effect
[2]
  degree of inhibition against the growth of Xoo by volatility: no significant effect
Xanthomonas oryzae
  inhibitory effect against the growth of Xanthomonas oryzae compared to Xanthomonas fragariae and Xanthomonas axonopodis: more specifically significant inhibitory effect against the growth of Xanthomonas oryzae
Magnaporthe oryzae
  growth inhibition of Magnaporthe oryzae: inhibited the growth

## C=C(C)C1CC=C(C)[C@@H](O)C1 (stereo partly drawn) [L-carveol]
[1]
  degree of inhibition against the growth of Xoo: effect of directly inhibiting the growth; also recorded: particularly strong inhibitory effect
  degree of inhibition against the growth of Xoo (inhibition radius): larger inhibition radius than that of limonene
[2]
  degree of inhibition against the growth of Xoo by volatility: strong inhibitory effect
Xanthomonas oryzae
  inhibitory effect against the growth of Xanthomonas oryzae compared to Xanthomonas fragariae and Xanthomonas axonopodis: more specifically significant inhibitory effect against the growth of Xanthomonas oryzae
Magnaporthe oryzae
  growth inhibition of Magnaporthe oryzae: effect of inhibiting the growth

## C=C(C)[C@H]1CC=C(C)C(=O)C1 [S-(+)-carvone]
[1]
  degree of inhibition against the growth of Xoo: effect of directly inhibiting the growth
  degree of inhibition against the growth of Xoo (inhibition radius): larger inhibition radius than that of limonene
[1]; listed as (S)-(+)-carvone
  degree of inhibition against the growth of Xoo: particularly strong inhibitory effect
[2]
  degree of inhibition against the growth of Xoo by volatility: strong inhibitory effect
Xanthomonas oryzae
  inhibitory effect against the growth of Xanthomonas oryzae compared to Xanthomonas fragariae and Xanthomonas axonopodis: more specifically significant inhibitory effect against the growth of Xanthomonas oryzae
Magnaporthe oryzae
  growth inhibition of Magnaporthe oryzae: effect of inhibiting the growth

## Cc1ccc(C(C)C)cc1O [carvacrol]
[1]
  degree of inhibition against the growth of Xoo: effect of directly inhibiting the growth
Magnaporthe oryzae
  growth inhibition of Magnaporthe oryzae: effect of inhibiting the growth

## CC1=CCC(C(C)(C)O)CC1 (stereo not drawn) [α-terpineol]
[1]
  degree of inhibition against the growth of Xoo: effect of directly inhibiting the growth
Magnaporthe oryzae
  growth inhibition of Magnaporthe oryzae: effect of inhibiting the growth

## (+)-isopulegol
[1]
  degree of inhibition against the growth of Xoo: effect of directly inhibiting the growth
Magnaporthe oryzae
  growth inhibition of Magnaporthe oryzae: effect of inhibiting the growth

## (+)-limonene oxide
[1]
  degree of inhibition against the growth of Xoo: effect of directly inhibiting the growth
Magnaporthe oryzae
  growth inhibition of Magnaporthe oryzae: effect of inhibiting the growth

## (S)-(−)-perillyl alcohol
[1]
  degree of inhibition against the growth of Xoo: effect of directly inhibiting the growth
Magnaporthe oryzae
  growth inhibition of Magnaporthe oryzae: effect of inhibiting the growth

## (−)-isopulegol
[1]
  degree of inhibition against the growth of Xoo: effect of directly inhibiting the growth
Magnaporthe oryzae
  growth inhibition of Magnaporthe oryzae: effect of inhibiting the growth

## R-(−)-carvone
[1]
  degree of inhibition against the growth of Xoo: effect of directly inhibiting the growth
[1]; listed as (R)-(−)-carvone
  degree of inhibition against the growth of Xoo: particularly strong inhibitory effect
[2]
  degree of inhibition against the growth of Xoo by volatility: strong inhibitory effect
Magnaporthe oryzae
  growth inhibition of Magnaporthe oryzae: effect of inhibiting the growth
